The numbers were not newly measured in PubChem BioAssay AID1259409 (Chemical Carcinogenesis Research Information System (CCRIS), 2018), which cites them from elsewhere.

This data set concerns rodent chemically induced tumor inhibition, incidence and multiplicity. As to the kind of experiment: CCRIS tumor inhibitor studies. Conditions: for outcome: Carcinogen: 1,2-Dimethylhydrazine dihydrochloride (306-37-6), Route [Inhibitor]: Oral, Species: Rat, Strain/Sex: Fischer 344/male, Target Tissue: Type of Lesion: Colon: tumors, Dose [Carcinogen]: 20 mg/kg once a wk for 4 wk, Promoter: None.

Consider `[Cl][Cd][Cl]`, for which the “tumour outcome (control, treated, inhibition, significance)” value (Carcinogen: DIETHYLNITROSAMINE, 55-18-5, Dose [Inhibitor]: 0, 500 PPM IN DRINKING WATER BEGINNING 2 WK POST CARCINOGEN DOSE AND CONTINUING FOR DURATION OF STUDY (STUDY DURATION: 5, Route [Inhibitor]: ORAL, Species: MOUSE, Strain/Sex: B6C3F1/MALE, Target Tissue: Type of Lesion: LIVER: TUMOR, Dose [Carcinogen]: 90 MG/KG IN TRICAPRYLIN (5 MG/ML) ONCE, Promoter: NONE USED) is given as 13/45 (29%), 3/42 (7%), 76%, p<0.05; the “tumour outcome (control, treated, inhibition, significance)” value (Carcinogen: DIETHYLNITROSAMINE, 55-18-5, Dose [Inhibitor]: 0, 500 PPM IN DRINKING WATER BEGINNING 2 WK POST CARCINOGEN DOSE AND CONTINUING FOR DURATION OF STUDY (STUDY DURATION: 5, Route [Inhibitor]: ORAL, Species: MOUSE, Strain/Sex: B6C3F1/MALE, Target Tissue: Type of Lesion: LUNG: TUMOR, Dose [Carcinogen]: 90 MG/KG IN TRICAPRYLIN (5 MG/ML) ONCE, Promoter: NONE USED) was 15/45 (33%), 11/42 (26%), 21%, not calculated; the “tumour outcome (control, treated, inhibition, significance)” value (Carcinogen: DIETHYLNITROSAMINE, 55-18-5, Dose [Inhibitor]: 0, 1000 PPM IN DRINKING WATER BEGINNING 2 WK POST CARCINOGEN DOSE AND CONTINUING FOR DURATION OF STUDY (STUDY DURATION:, Route [Inhibitor]: ORAL, Species: MOUSE, Strain/Sex: B6C3F1/MALE, Target Tissue: Type of Lesion: LIVER: TUMOR, Dose [Carcinogen]: 90 MG/KG IN TRICAPRYLIN (5 MG/ML) ONCE, Promoter: NONE USED) is 13/45 (29%), 0/47 (0%), 100%, p<0.05; the “tumour outcome (control, treated, inhibition, significance)” value (Carcinogen: DIETHYLNITROSAMINE, 55-18-5, Dose [Inhibitor]: 0, 1000 PPM IN DRINKING WATER BEGINNING 2 WK POST CARCINOGEN DOSE AND CONTINUING FOR DURATION OF STUDY (STUDY DURATION:, Route [Inhibitor]: ORAL, Species: MOUSE, Strain/Sex: B6C3F1/MALE, Target Tissue: Type of Lesion: LUNG: TUMOR, Dose [Carcinogen]: 90 MG/KG IN TRICAPRYLIN (5 MG/ML) ONCE, Promoter: NONE USED) is given as 15/45 (33%), 1/47 (2%), 94%, p<0.05.

As for `C#C[C@]1(O)CC[C@H]2[C@@H]3CCc4cc(O)ccc4[C@H]3[C@H](OC)C[C@@]21C`, the “tumour outcome (control, treated, inhibition, significance)” value is, setting by setting: (Carcinogen: N-METHYL-N-NITROSOUREA, 684-93-5, Dose [Inhibitor]: 0, 24 UG 3/WK FOR THE DURATION OF STUDY BEGINNING 7 D PRIOR TO CARCINOGEN DOSE (STUDY DURATION: 187 D), Route [Inhibitor]: SUBCUTANEOUS, Species: RAT, Strain/Sex: SPRAGUE-DAWLEY/FEMALE, Target Tissue: Type of Lesion: MAMMARY GLAND: TUMOR, Dose [Carcinogen]: 50 MG/KG BW ONCE, Promoter: NONE USED) 100%, 90%, 10%, not significant; (Carcinogen: N-METHYL-N-NITROSOUREA, 684-93-5, Dose [Inhibitor]: 10 UG DAILY STARTING SIMULTANEOUSLY WITH CARCINOGEN TREATMENT AND CONTINUING FOR DURATION OF STUDY (STUDY DURATION: 145, Route [Inhibitor]: INJECTION, Species: RAT, Strain/Sex: SPRAGUE-DAWLEY/FEMALE, Target Tissue: Type of Lesion: MAMMARY GLAND: TUMOR, Dose [Carcinogen]: 5 MG/100 G BW AT 0, 4 AND 8 WK OF STUDY, Promoter: NONE USED) 86%, 54%, 37%, not calculated.

With `Cc1occc(=O)c1O`, for the setting “Carcinogen: BENZO[A]PYRENE, 50-32-8, Dose [Inhibitor]: 0.034 MMOL/G IN DIET BEGINNING 1 WK PRIOR TO CARCINOGEN DOSE AND CONTINUING FOR 3 D POST LAST CARCINOGEN DOSE (STUDY DUR, Route [Inhibitor]: ORAL, Species: MOUSE, Strain/Sex: ICR/FEMALE, Target Tissue: Type of Lesion: FORESTOMACH: TUMOR, Dose [Carcinogen]: 1 MG IN 0.2 ML CORN OIL 2/WK FOR 4 WK, Promoter: NONE USED”, the “tumour outcome (control, treated, inhibition, significance)” value is recorded as 94%, 100%, -6%, not significant.

Turning to `C=C1CC[C@H]2[C@](C)(COC(=O)[C@@H](CC(=O)O)[C@@H](OC[C@H]3C(=C)CC[C@H]4[C@](C)(CO)CCC[C@]34C)C(=O)OC)CCC[C@]2(C)[C@H]1CO[C@@H](C(=O)OC)[C@H](CC(=O)O)C(=O)OC`, the “tumour outcome (control, treated, inhibition, significance)” value is 10/16 (63%), 5/16 (31%), 51%, not significant (Carcinogen: 1,2-DIMETHYLHYDRAZINE DIHYDROCHLORIDE, 306-37-6, Dose [Inhibitor]: 0: 0.06% IN DIET FOR DURATION OF STUDY (STUDY DURATION: 25 WK), Route [Inhibitor]: ORAL, Species: MOUSE, Strain/Sex: ICR/FEMALE, Target Tissue: Type of Lesion: COLON: TUMOR, Dose [Carcinogen]: 10 MG/KG BW IN 0.9% SALINE 1/WK FOR 15 WK, Promoter: NONE USED); 73%, 53%, 27%, not calculated (Carcinogen: 7,12-DIMETHYLBENZ[A]ANTHRACENE, 57-97-6, Dose [Inhibitor]: 0, 1 MG 2/WK FOR 20 WK APPLIED 10 MIN PRIOR TO EACH PROMOTER DOSE (STUDY DURATION: 20 WK), Route [Inhibitor]: DERMAL, Species: MOUSE, Strain/Sex: CD-1/FEMALE, Target Tissue: Type of Lesion: SKIN: TUMOR, Dose [Carcinogen]: 100 UG ONCE, Promoter: OKADAIC ACID, 78111-17-8); 73%, 20%, 73%, not calculated (Carcinogen: 7,12-DIMETHYLBENZ[A]ANTHRACENE, 57-97-6, Dose [Inhibitor]: 0, 5 MG 2/WK FOR 20 WK APPLIED 10 MIN PRIOR TO EACH PROMOTER DOSE (STUDY DURATION: 20 WK), Route [Inhibitor]: DERMAL, Species: MOUSE, Strain/Sex: CD-1/FEMALE, Target Tissue: Type of Lesion: SKIN: TUMOR, Dose [Carcinogen]: 100 UG ONCE, Promoter: OKADAIC ACID, 78111-17-8); 12/16 (75%), 5/16 (31%), 57%, p<0.05 (Carcinogen: N-METHYL-N-NITROSOUREA, 684-93-5, Dose [Inhibitor]: 0, 0.2% IN DIET FOR 33 WK BEGINNING POST CARCINOGEN TREATMENT (STUDY DURATION: 35 WK), Route [Inhibitor]: ORAL, Species: RAT, Strain/Sex: F344/FEMALE, Target Tissue: Type of Lesion: COLON: TUMOR, Dose [Carcinogen]: 2 MG 3/WK FOR 2 WK, Promoter: NONE USED).

`CC(=O)Oc1c(C)c(C)c2c(c1C)CCC(C)(CCCC(C)CCCC(C)CCCC(C)C)O2` (stereo not drawn): the “tumour outcome (control, treated, inhibition, significance)” value by setting is: (Carcinogen: 7,12-DIMETHYLBENZ[A]ANTHRACENE, 57-97-6, Dose [Inhibitor]: 1000 MG/KG IN 20% CORN OIL DIET DAILY STARTING 2 WK BEFORE CARCINOGEN TREATMENT AND CONTINUING FOR DURATION OF STUDY (ST, Route [Inhibitor]: ORAL, Species: RAT, Strain/Sex: SPRAGUE-DAWLEY/FEMALE, Target Tissue: Type of Lesion: MAMMARY GLAND: ADENOCARCINOMA, Dose [Carcinogen]: 10 MG ONCE AT AGE 50 D) 28/30 (93%), 27/30 (90%), 3%, not significant; (Carcinogen: UV-B IRRADIATION, Dose [Inhibitor]: 25, 100 UG/KG IN DIET FOR DURATION OF STUDY BEGINNING 3 WK PRIOR TO IRRADIATION (STUDY DURATION: 40 WK), Route [Inhibitor]: ORAL, Species: MOUSE, Strain/Sex: C3H/HEN/FEMALE, Target Tissue: Type of Lesion: SKIN: TUMOR, Dose [Carcinogen]: 6.4 J/M2/SEC 30 MIN/D 5 D/WK FOR 13 WK , IRRADIATION DISCONTINUED FOR 3 WK DUE TO TOXICITY THEN IT WAS RESUMED FOR 2 WK, Promoter: NONE USED) 67%, 46%, 31%, not calculated; (Carcinogen: UV-B IRRADIATION, Dose [Inhibitor]: 25, 200 UG/KG IN DIET FOR DURATION OF STUDY BEGINNING 3 WK PRIOR TO IRRADIATION (STUDY DURATION: 40 WK), Route [Inhibitor]: ORAL, Species: MOUSE, Strain/Sex: C3H/HEN/FEMALE, Target Tissue: Type of Lesion: SKIN: TUMOR, Dose [Carcinogen]: 6.4 J/M2/SEC 30 MIN/D 5 D/WK FOR 13 WK, IRRADIATION DISCONTINUED FOR 3 WK DUE TO TOXICITY THEN IT WAS RESUMED FOR 2 WK, Promoter: NONE USED) 67%, 19%, 72%, not calculated.

`O=c1ccc2cc(O[C@@H]3O[C@H](CO)[C@@H](O)[C@H](O)[C@H]3O)c(O)cc2o1`: the outcome is on record as 5 (31%) vs 10 (62.5% in positive controls) (p <0.05) (Dose [Inhibitor]: 0.05% in tap water beginning 7 d before first carcinogen administration to end of last carcinogen administration, animal) and 9 (56.3%) vs 10 (62.5%) in positive controls; ns (Dose [Inhibitor]: 0.05% in tap water beginning after last carcinogen administration to end of 16 wk study). In addition, the “tumour outcome (control, treated, inhibition, significance)” value runs as follows: (Carcinogen: BENZO[A]PYRENE, 50-32-8, Dose [Inhibitor]: 25 MG IN 0.1 ML DMSO 3/WK ADMINISTERED SIMULTANEOUSLY WITH CARCINOGEN FOR DURATION OF STUDY (STUDY DURATION: 368 D), Route [Inhibitor]: DERMAL, Species: MOUSE, Strain/Sex: ICR/FEMALE, Target Tissue: Type of Lesion: SKIN: PAPILLOMA, Dose [Carcinogen]: 5 UG IN 0.1 ML DMSO 3/WK FOR DURATION OF STUDY, Promoter: NONE USED) 13/50 (26%), 0/50 (0%), 100%, not calculated; (Carcinogen: BENZO[A]PYRENE, 50-32-8, Dose [Inhibitor]: 25 MG IN 0.1 ML DMSO 3/WK ADMINISTERED SIMULTANEOUSLY WITH CARCINOGEN FOR DURATION OF STUDY (STUDY DURATION: 368 D), Route [Inhibitor]: DERMAL, Species: MOUSE, Strain/Sex: ICR/FEMALE, Target Tissue: Type of Lesion: SKIN: SQUAMOUS CARCINOMA, Dose [Carcinogen]: 5 UG IN 0.1 ML DMSO THAT ALSO CONTAINED AGENT, 3/WK, FOR DURATION OF STUDY, Promoter: NONE USED) 6/50 (12%), 0/50 (0%), 100%, not calculated.
